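A five-concentration, 48-hour dose response in 96-well plates underlies each endpoint, interpolated linearly between surrounding concentrations. Abbreviation: GI50, concentration required for 50% inhibition of growth. TGI denotes the concentration required for complete inhibition of growth.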
Key:
Test in all cases: NCI-60 cell line screen, 48 h
[1] = test system: 786-0 renal
[2] = test system: HOP-92 NSCLC
[3] = test system: MDA-MB-231 breast
[4] = test system: NCI-H226 lung
[5] = test system: NCI-H23 lung
[6] = test system: NCI-H522 lung
[7] = test system: SF-268 CNS
[8] = test system: SF-295 CNS
[9] = test system: SNB-19 CNS
[10] = test system: SW-620 colon
[11] = test system: U251 CNS
[12] = test system: SF-539 CNS

Row | Structure (SMILES) | TGI [1] [µM] | TGI [2] [µM] | TGI [3] [µM] | TGI [4] [µM] | TGI [5] [µM] | TGI [6] [µM] | TGI [7] [µM] | TGI [8] [µM] | TGI [9] [µM] | TGI [10] [µM] | TGI [11] [µM] | GI50 [7] [µM] | TGI [12] [µM] | GI50 [2] [µM] | GI50 [3] [µM] | GI50 [4] [µM] | GI50 [5] [µM] | GI50 [8] [µM] | GI50 [12] [µM] | GI50 [9] [µM]
1 | CN(C)CCCSc1nc2ccccc2[nH]1 | > 100 | > 100 | > 100 | > 100 | > 100 | > 100 | > 100 | > 100 | > 100 | > 100 | > 100 |  |  |  |  |  |  |  |  | 
2 | CCOC(=O)c1cnc2oc3ccc(O)cc3c2c1C | > 100 | > 100 | > 100 | > 100 | > 100 |  | > 100 | > 100 | > 100 | > 100 | > 100 | 69.9 | > 100 |  |  |  |  |  |  | 
3 | COc1ccc2[nH]cc(CCNC(=O)[C@H](Cc3ccccc3)NC(=O)[C@@H](NCC(F)(F)F)C(C)C)c2c1 | 35.1 | 28.4 | 35.9 | 44 | 64.6 | 32.1 |  | 25.2 | 84.8 | 81.6 | 39 |  | 34.3 |  |  |  |  |  |  | 
4 | CCCCCCCCCCCCCCCCCCOc1ccccc1CC(=O)OCC[N+]1(C)CCCCC1 |  | 3.35 | 3.89 | 6.25 | 4.25 |  |  | 9.62 | 4.94 |  |  |  | 3.89 | 1.32 | 1.83 | 2.18 | 1.8 | 2.93 | 1.97 | 2.05
5 | CN(CCCCCl)P(=O)(OCc1ccc([N+](=O)[O-])o1)OC[C@H]1O[C@@H](n2cc(F)c(=O)[nH]c2=O)C[C@@H]1O (stereo partly drawn) | > 80.1 | 20.3 | 34.2 | > 86.6 | 20.5 | 19.5 | 13.2 | 3.48 | > 55.3 | > 81.8 | 34.6 |  | 0.217 |  |  |  |  |  |  | 
6 | CN1CCOC(c2ccc(Cl)cc2)O1 (stereo not drawn) |  | > 100 | > 100 | > 100 | > 100 | > 100 | > 100 | > 100 | > 100 | > 100 | > 100 |  | > 100 |  |  |  |  |  |  | 
7 | CC(CCN)(CCN)[N+](=O)[O-] | > 100 | > 100 | > 100 | > 100 | > 100 | > 100 | > 100 | > 100 | > 100 | > 100 | > 100 |  | > 100 |  |  |  |  |  |  | 
8 | COc1cc2c(c(O)c1OC)-c1c(cc(OC)c(OC)c1OC)CC(C)C(C)C2 (stereo not drawn) | > 100 | > 100 | > 100 | > 100 | > 100 | > 100 | > 100 | > 100 | > 100 | > 100 | > 100 |  | > 100 |  |  |  |  |  |  | 
9 | C1=NCCN2CCN(CCN=Cc3ccc(cc3)OCc3cccc(n3)COc3ccc1cc3)CC2 | > 50 | > 50 | > 50 | > 50 | > 50 | > 50 | > 50 | > 50 | > 50 | > 50 | > 50 |  | > 50 |  |  |  |  |  |  | 
10 | C=C1c2ccccc2C(=O)c2c1c1c(C(=O)OC)c(O)ccc1n2Cc1ccccc1 | 0.525 | 0.613 | 1.54 |  | 2.8 | 0.795 | 0.518 | 1.99 | 1.52 | 1.42 | 0.763 |  | 0.657 |  |  |  |  |  |  | 
11 | O=C(O)c1cc([N+](=O)[O-])cc2c(=O)c3cnccc3[nH]c12 |  |  | > 100 | > 100 | > 100 | > 100 |  | > 100 | > 100 |  | > 100 |  |  |  |  |  |  |  |  | 
12 | COC1=C(OC)C(=O)C(Cc2c(Cl)nc3sc(C)cn23)=C(C)C1=O | 38.8 |  | 41.8 |  | 42.6 | 30.2 | 37 | 32.1 | 41.3 | 47.8 | 36 |  | 34.6 |  |  |  |  |  |  | 
13 | O=C([O-])C[n+]1ccccc1 | > 100 | > 100 | > 100 | > 100 | > 100 | > 100 | > 100 | > 100 | > 100 | > 100 | > 100 |  | > 100 |  |  |  |  |  |  | 
14 | Cn1c2ccccc2n2c(N=O)c(-c3ccccc3)nc12 | > 100 | > 100 | > 100 |  | > 100 | > 100 | > 100 | > 100 | > 100 | > 100 | > 100 |  |  |  |  |  |  |  |  | 
15 | Nc1ncnc2c1ncn2C=C=CCO |  | > 100 | > 100 | > 100 | > 100 |  |  | > 100 | > 100 | > 100 | > 100 |  |  |  |  |  |  |  |  | 
16 | C[C@]12C=CC(=O)C=C1CC[C@@H]1[C@@H]2CC[C@]2(C)OC(=O)CC[C@@H]12 | > 500 | 500 | > 500 | > 493 | 499 | 457 | > 500 | > 500 | > 500 | > 496 | > 500 |  | > 476 |  |  |  |  |  |  | 
17 | Cc1ccc(S(=O)(=O)n2cc(-c3cc(C(F)(F)F)ccn3)c3cc(Br)ccc32)cc1 | 36.3 | 35.3 | 46.5 | 57 | 31.1 |  | 93.9 | 67.7 | 37.5 | > 100 | 34.3 |  | 39.5 |  |  |  |  |  |  | 
18 | CN1CCc2[nH]c3ccccc3c2C1 |  | > 100 |  | > 100 | > 100 | > 100 | > 100 | > 100 | > 100 | > 100 | > 100 |  | > 100 |  |  |  |  |  |  | 
19 | CCOc1ccc(NC(=O)C(=O)CC(=O)c2sc(NNC(C)=O)nc2C)cc1 |  | > 100 |  | > 100 | > 100 | > 100 | > 100 | > 100 | > 100 | > 100 | > 100 |  | > 100 |  |  |  |  |  |  | 
20 | O=C(Nc1ccc(Cl)cc1)c1cc2cc(N=Nc3ccccc3Cl)ccc2oc1=O |  | 38.8 |  | 46.9 | 34.5 | 53.2 | > 100 | 91.9 | > 100 | > 100 | 51 |  | 31.3 |  |  |  |  |  |  | 
